Consider 16 molecules from patent publication US20110230472A1, “RING-FUSED AZOLE DERIVATIVE HAVING PI3K-INHIBITING ACTIVITY” (Shionogi & Co., Ltd., priority 2008, published 2011).

For data set [1], the target named is T1, PI-3 kinase γ (Homo sapiens, UniProt P48736). Briefly: PI3Kγ inhibitory activity, PI3-kinase HTRF assay (inhibition ratio). The class given is biochemical. Conditions: 0.5 h; for inhibition at 50 µM: compound at 50 μM. An outline of the steps:
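PI3Kγ preincubated 10 min with compound and PIP2 substrate (MgCl2, DTT), then ATP added for 30 min at room temperature. PIP3 detected by HTRF (665/620 nm ratio) after 18 h. Inhibition ratio at 50 or 10 μmol/L, normalised to no-compound and no-enzyme controls.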

In data set [2] the test system is AKT phosphorylation in human monocyte-like cell line THP-1. Briefly: AKT phosphorylation inhibitory activity in MCP-1-stimulated THP-1 cells (ELISA). The note with it: 1 μmol/L solution of each compound, MCP-1 stimulation, read-out: AKT phosphorylation inhibition ratio. The data set is classed as cell-based. As for the experimental part: (1) The AKT phosphorylation inhibitory activity of a compound was evaluated according to the following procedure. (2) Human monocyte-like cell line THP-1 was washed with RPMI-1640 media, incubated in the presence of 5% CO2 at 37° C. for 3 hours, washed with Hank's balanced salt solution (HBSS), adjusted to a cell concentration of 6.6×10^6/mL, and then used in an experiment. (3) 30 μL of the cell suspension and 60 μL of each compound solution containing 0.2% DMSO/HBSS were mixed and then preincubated at 37° C. for 5 minutes. 30 μL of HBSS containing 4 μg/mL of MCP-1 was added thereto and then incubated for 30 seconds at 37° C. (4) 30 μl of a cell lysate (20 mmol/L Tris-HCl (pH 7.5), 150 mmol/L NaCl, 1 mmol/L Na2EDTA, 1 mmol/L EGTA, 1% Triton, 2.5 mmol/L sodium pyrophosphate, 1 mmol/L β-glycerophosphate, 1 mmol/L Na3VO4, 1 μg/ml leupeptin, 50 nmol/L APMSF) was added thereto to lyse cells. (5) The amount of AKT phosphorylation in the cell lysate was measured by ELISA method. (6) Anti-phospho-Akt (Ser473) antibodies (clone 193H12, derived from a rabbit) were immobilized onto the solid phase of a micro well plate. 100 μL of the prepared cell lysate was added to the micro well plate, incubated for 2 hours at 37° C., and then washed four times with Phosphate Buffered Saline containing 0.05% Tween-20. (7) An anti-AKT1 antibody (clone 2H10, derived from a mouse) was added thereto, incubated for 1 hour at 37° C., washed similarly, and then reacted with an HRP-labeled anti-mouse IgG antibody. (8) After incubating at 37° C. for 30 minutes and then washing similarly, 100 μL of TMB (3,3′,5,5″-tetramethylbenzidine) was added thereto, followed by reacting at room temperature for 30 minutes. (9) 100 μL of 1 mol/L sulfuric acid was added to quench the color reaction and then the absorbance at 450 nm was measured. (10) A series of diluted cell lysates of a positive control (a sample in the absence of a compound) were used to prepare a calibration curve, the amount of AKT phosphorylation in a sample in the absence of MCP-1 was defined as 0% activity to calculate an inhibition ratio. The measurement was performed for a 1 μmol/L solution of each compound.

The target of data set [3] is T1, PI-3 kinase γ. Briefly: PI3Kγ inhibitory activity (Ki value), HTRF. The class given is biochemical. The note with it: Ki=IC50/(1+10 μM ATP/Km). How it is done:
The PI3Kγ inhibitory activity (Ki value) of a compound was evaluated according to the following procedure:
5 μL of a compound solution containing 10% DMSO and 200 μmol/L of a compound was changed to 5 μL of a compound solution containing 10% DMSO and either 200, 64, 20, 6.4, 2, 0.64, or 0.20 μmol/L of the compound (optionally, this is diluted to a lower concentration). Using a method similar to the method for measuring PI3Kγ inhibitory activity, inhibition ratios were measured in the presence of the compound at 50, 16, 5, 1.6, 0.5, 0.16, and 0.05 μmol/L (optionally, a lower concentration). Then an IC50 value was calculated by a logistic approximation method or the linear regression method using two concentrations that across 50% inhibition. Separately, the ATP concentration in the reaction solution (40 μmol/L ATP, 10 mmol/L MgCl2, 5 mmol/L DTT) at the time of the start of a reaction in the absence of the compound was changed to 80, 40, 20, 10, 5, 2.5, 1.25, or 0.625 μmol/L. Then, HTRF ratios were measured by a similar method. The value obtained by subtracting the HTRF ratio at each ATP concentration from the HTRF ratio in the absence of PI-3 kinase γ was defined as the value obtained by multiplying reaction rate (v) at each ATP concentration with a constant. The Michaelis-Menten constant Km was then calculated by the Lineweaver-Burk plot method. The Ki value of a compound was calculated by the following formula.
Ki=IC50 value/(1+10 μM (test ATP concentration)/Km (μM))

The nature of data set [4]: Metabolic stability test.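 Note: 100% equals the compound amount at 0 min reaction.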 The class given is in vitro ADME. The note with it: human liver microsome 0.5 mg protein/mL, 1 mmol/L NADPH, 37° C. How it is done: After a subject compound was reacted for a certain time using a pooled human liver microsome commercially available, a reacted sample and an unreacted sample are compared to calculate a survival ratio, and then the degree of metabolism in the liver was evaluated.
0.2 mL of a buffer solution (50 mmol/L of Tris-HCl in pH 7.4, 150 mmol/L of potassium chloride, and 10 mmol/L of magnesium chloride) containing a human liver microsome of 0.5 mg protein/mL was reacted in the presence of 1 mmol/L NADPH at 37° C. for 0 or 30 minutes (oxidative reaction). After reacting, 50 μL of the reaction solution was added to 100 μL of a solution of methanol/acetonitrile (1/1 (v/v)), mixed, and then centrifuged at 3000 rpm for 15 minutes. The test compound in the supernatant was quantitated with LC/MS/MS. The amount of the compound at a reaction time of 0 minute was defined as 100% and, based on that, the percentage of the test compound remained after reacting for 30 minutes was calculated.

Data set [5] addresses T2, human ether-a-go-go related gene (hERG) channel (Homo sapiens, UniProt Q12809).
T2 construct: expressed in transfected cells; host or cells: HEK293
Briefly: hERG test, whole-cell patch-clamp. The data set is classed as cell-based. The note with it: HEK293 cell expressing hERG; applied for 10 minutes; concentration not given. The text has this:
For the purpose of risk evaluation of QT interval extension of electrocardiogram, the activity on delayed rectification K^+ current (IKr), which plays an important role in a cardiac ventricle repolarization process, was examined using the HEK293 cell that was made to express human ether-a-go-go related gene (hERG) channel.
Using an automatic patch-clamp system (PatchXpress 7000A, Axon Instruments Inc.), by a whole-cell patch-clamp method, after the cell was maintained at a membrane potential of −80 mV, IKr induced upon applying depolarizing stimulation of +50 mV for 2 seconds and further applying repolarizing stimulation of −50 mV for 2 seconds was recorded. After generated electric current became stable, a test substance dissolved at an intended concentration in extracellular fluid (137 mmol/L NaCl, 4 mmol/L KCl, 1.8 mmol/L CaCl2.2H2O, 1 mmol/L MgCl2.6H2O, 10 mmol/L glucose, 10 mmol/L HEPES (4-(2-hydroxyethyl)-1-piperazineethanesulfonic acid), pH=7.4) was applied to the cell for 10 minutes under room temperature condition. From the obtained IKr, the absolute value of the maximum tail current was measured using analysis software (DataXpress ver. 1, Molecular Devices Corporation) and the value of the electric current in a maintained membrane potential as baseline. Moreover, an inhibition ratio for the maximum tail current prior to the application of the test substance was calculated and then compared with a group of media-application (0.1% dimethylsulfoxide solution) to evaluate influence of the test substance on IKr.

The nature of data set [6]: Solubility test. The class given is physicochemical. The note with it: kinetic from dmso stock; artificial intestinal juice pH 6.8, 1% DMSO, 25° C. for 16 hours. As for the experimental part: The solubility of a compound was determined under a condition in which 1% DMSO was added. 10 mmol/L compound solution was prepared using DMSO, and then 6 μL of the compound solution was added to 594 μL of artificial intestinal juice in pH 6.8 (to 250 mL of 0.2 mol/L potassium dihydrogen phosphate reagent solution was added 118 mL of 0.2 mol/L NaOH reagent solution and water to provide a final volume of 1000 mL). After standing at 25° C. for 16 hours, the mixed solution was filtered with suction. The filtrate was diluted twice with methanol/water (1/1), and then a concentration in the filtration was measured with HPLC or LC/MS/MS by the absolute calibration method.

T1 sequence (P48736 whole entry): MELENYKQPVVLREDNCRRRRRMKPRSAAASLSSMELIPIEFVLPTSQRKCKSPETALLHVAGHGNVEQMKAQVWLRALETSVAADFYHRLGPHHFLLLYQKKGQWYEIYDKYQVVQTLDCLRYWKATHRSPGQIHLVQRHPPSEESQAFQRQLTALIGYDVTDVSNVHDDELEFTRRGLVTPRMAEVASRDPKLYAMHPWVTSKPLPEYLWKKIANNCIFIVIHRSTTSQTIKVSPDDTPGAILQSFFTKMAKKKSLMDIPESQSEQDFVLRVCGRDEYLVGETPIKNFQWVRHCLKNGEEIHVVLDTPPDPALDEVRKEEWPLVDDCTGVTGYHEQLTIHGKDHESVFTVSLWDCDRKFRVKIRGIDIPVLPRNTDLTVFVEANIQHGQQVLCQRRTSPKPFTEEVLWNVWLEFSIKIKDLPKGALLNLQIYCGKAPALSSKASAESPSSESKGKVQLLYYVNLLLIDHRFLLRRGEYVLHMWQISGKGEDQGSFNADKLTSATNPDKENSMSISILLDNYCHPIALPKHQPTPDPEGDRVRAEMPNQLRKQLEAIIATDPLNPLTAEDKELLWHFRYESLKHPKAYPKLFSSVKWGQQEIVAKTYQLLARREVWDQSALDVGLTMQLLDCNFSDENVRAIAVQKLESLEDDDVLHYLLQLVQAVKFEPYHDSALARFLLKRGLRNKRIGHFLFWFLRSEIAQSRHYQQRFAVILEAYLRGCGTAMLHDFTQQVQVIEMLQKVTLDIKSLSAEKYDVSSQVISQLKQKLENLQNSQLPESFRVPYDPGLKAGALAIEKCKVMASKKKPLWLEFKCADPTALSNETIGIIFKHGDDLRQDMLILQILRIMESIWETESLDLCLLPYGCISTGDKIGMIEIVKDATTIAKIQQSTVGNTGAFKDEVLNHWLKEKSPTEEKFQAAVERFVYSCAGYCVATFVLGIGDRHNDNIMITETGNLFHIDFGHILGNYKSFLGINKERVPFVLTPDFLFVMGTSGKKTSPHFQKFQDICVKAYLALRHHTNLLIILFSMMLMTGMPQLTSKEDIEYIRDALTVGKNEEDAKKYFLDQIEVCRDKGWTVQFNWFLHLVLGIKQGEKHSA
T2 sequence (Q12809 whole entry): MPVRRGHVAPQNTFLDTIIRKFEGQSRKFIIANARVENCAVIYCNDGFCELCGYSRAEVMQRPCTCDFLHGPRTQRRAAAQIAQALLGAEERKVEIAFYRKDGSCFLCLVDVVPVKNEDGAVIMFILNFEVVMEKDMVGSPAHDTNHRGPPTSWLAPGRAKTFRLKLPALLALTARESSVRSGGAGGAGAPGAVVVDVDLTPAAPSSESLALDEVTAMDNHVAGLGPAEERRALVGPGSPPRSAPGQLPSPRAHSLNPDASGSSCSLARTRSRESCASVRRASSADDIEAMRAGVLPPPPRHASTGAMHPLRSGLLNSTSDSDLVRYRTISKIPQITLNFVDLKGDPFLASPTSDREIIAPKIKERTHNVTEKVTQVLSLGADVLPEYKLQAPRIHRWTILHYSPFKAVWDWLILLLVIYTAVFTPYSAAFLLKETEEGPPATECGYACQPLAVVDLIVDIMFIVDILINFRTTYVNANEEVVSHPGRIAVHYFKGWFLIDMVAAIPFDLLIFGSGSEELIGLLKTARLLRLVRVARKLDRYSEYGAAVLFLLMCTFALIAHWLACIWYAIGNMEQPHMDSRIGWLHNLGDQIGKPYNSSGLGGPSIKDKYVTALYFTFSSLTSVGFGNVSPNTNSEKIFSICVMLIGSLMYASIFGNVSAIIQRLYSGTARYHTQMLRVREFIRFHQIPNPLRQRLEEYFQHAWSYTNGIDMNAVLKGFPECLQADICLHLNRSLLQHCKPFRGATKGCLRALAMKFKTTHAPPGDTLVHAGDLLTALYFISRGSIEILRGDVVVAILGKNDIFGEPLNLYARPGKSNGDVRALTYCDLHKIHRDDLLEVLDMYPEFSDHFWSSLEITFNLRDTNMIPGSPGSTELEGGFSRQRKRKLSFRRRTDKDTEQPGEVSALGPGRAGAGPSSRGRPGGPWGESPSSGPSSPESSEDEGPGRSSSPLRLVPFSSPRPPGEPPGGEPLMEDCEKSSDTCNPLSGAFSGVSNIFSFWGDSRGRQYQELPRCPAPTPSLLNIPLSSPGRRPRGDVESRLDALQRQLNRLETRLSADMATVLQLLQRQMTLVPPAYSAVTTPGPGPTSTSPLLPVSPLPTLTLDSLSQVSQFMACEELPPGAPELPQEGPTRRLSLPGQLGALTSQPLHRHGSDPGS

Regarding `CCOC(=O)CNC(=O)Nc1nc2c(s1)CN(c1cc(OC)nc(OC)n1)CC2` [Compound I-202], the inhibition at 50 µM in data set [1] (PI3Kγ) was at least 95%. The inhibition in data set [2] was above 99.5%. The Ki in data set [3] amounted to 0.049 µM.
With `COc1cc(N2CCc3nc(NC(=O)NCCC(=O)N(C)C(C)C)sc3C2)nc(OC)n1` [Compound I-310], the inhibition at 10 µM in data set [1] (compound at 10 μmol/L) is at least 95%. Further, the inhibition in data set [2] was above 99.5%. Also, in data set [3], the affinity corresponds to a Ki of 0.043 µM.
As to `COC(=O)[C@H](CC(=O)OC(C)(C)C)NC(=O)Nc1nc2c(s1)CN(c1cc(OC)nc(OC)n1)CC2` [Compound I-277], the inhibition at 10 µM in data set [1] (PI3Kγ, compound at 10 μM) is at least 95%. The same molecule registered a Ki in data set [3] of 0.036 µM.
Turning to `CC(=O)Nc1nc2c(s1)CN(c1ccccc1)CC2` [Compound I-230], the “percentage of the test compound remained after reacting for 30 minutes” value (from here on “percentage of the test compound remained”) in data set [4] is on record as 87.9%. The “inhibition ratio for the maximum tail current (IKr)” value in data set [5] stood at 9.1%. For the same molecule, the inhibition at 50 µM in data set [1] (PI3Kγ) was found to be 81%. Moreover, the solubility at 16 h in data set [6] was above 50 µM.
Turning to `CN1CCc2cc(N3CCn4nc(NC(=O)c5ccc(C(=O)NCC(=O)O)s5)cc43)ccc2C1=O` [Compound I-415], in data set [1] (compound at 10 μmol/L), the inhibition at 10 µM is at least 95%. In data set [3], this molecule gave a Ki of 0.034 µM.
With `COc1cc(N2CCc3nc(NC(=O)Nc4ccon4)sc3C2)nc(OC)n1` [Compound I-303], in data set [4], the “percentage of the test compound remained” value was determined as 87.3%. Also, the inhibition at 10 µM in data set [1] (compound at 10 μmol/L) was 94%. The molecule also came in with a Ki in data set [3] of 0.045 µM.
With `COc1cc(N2CCc3nc(NC(=O)NCCC(=O)NC(C)C)sc3C2)nc(OC)n1` [Compound I-309], the “percentage of the test compound remained” value in data set [4] worked out at 93.1%. The inhibition at 10 µM in data set [1] (compound at 10 μmol/L) is at least 95%. This molecule also registered a solubility at 16 h in data set [6] above 50 µM. For the same molecule, the inhibition in data set [2] was found to be 92%.
As for `CN1CCc2cc(N3CCn4nc(NC(=O)c5cnc(NC(=O)OC(C)(C)C)s5)cc43)ccc2C1=O` [Compound I-375], the inhibition at 10 µM in data set [1] (compound at 10 μmol/L) is at least 95%. Further, in data set [3], affinity was put at a Ki of 0.023 µM.
With `CN1CCc2cc(N3CCn4nc(NC(=O)c5cnc(N)s5)cc43)ccc2C1=O` [Compound I-380], the inhibition at 10 µM in data set [1] (compound at 10 μmol/L) is at least 95%. In data set [3], this molecule showed a Ki of 0.032 µM.
The corresponding values for `CC(=O)Nc1cc2n(n1)CCN2c1ccc2c(c1)CCNC2=O` [Compound I-292] are at least 95% and 0.043 µM.
As for `CN1CCc2cc(N3CCn4nc(NC(=O)c5cnco5)cc43)ccc2C1=O` [Compound I-348], the “percentage of the test compound remained” value in data set [4] is reported as 94.5%. Moreover, the inhibition at 10 µM in data set [1] (compound at 10 μmol/L) is at least 95%. Also, in data set [6], the solubility at 16 h was above 50 µM. Moreover, in data set [2], the inhibition was above 99.5%.
Turning to `COc1cc(N2CCc3nc(NC(=O)NCCC(=O)NC(C)(C)C)sc3C2)nc(OC)n1` [Compound I-265], in data set [1] (PI3Kγ, compound at 10 μM), the inhibition at 10 µM was at least 95%. Further, the inhibition in data set [2] was above 99.5%. Besides, the Ki in data set [3] turned out to be 0.042 µM.
For the molecule `COC(=O)Nc1cc[nH]c1C(=O)Nc1cc2n(n1)CCN2c1ccc2c(c1)CCN(C)C2=O` [Compound I-398], the inhibition at 10 µM in data set [1] (compound at 10 μmol/L) is at least 95%. In data set [3], the Ki was found to be 0.049 µM.
`COc1cc(N2CCc3nc(NC(=O)NCCC(=O)N4CCCC4(C)C)sc3C2)nc(OC)n1` [Compound I-318]: the inhibition at 10 µM in data set [1] (compound at 10 μmol/L) is at least 95%. Moreover, the solubility at 16 h in data set [6] is above 50 µM. Also, in data set [2], the inhibition is above 99.5%. In addition, the inhibitory constant (Ki) in data set [3] is 0.045 µM.
For `CC(=O)Nc1cc2n(n1)CCN2c1ccc2cnccc2c1` [Compound I-284], the inhibition at 10 µM in data set [1] (PI3Kγ, compound at 10 μM) is at least 95%. Moreover, the inhibition in data set [2] was above 99.5%. This molecule also gave a Ki in data set [3] of 0.04 µM.
With `CNC(=O)Nc1cc2n(n1)CCN2c1ccc(C(N)=O)cc1` [Compound I-160], the “inhibition ratio for the maximum tail current (IKr)” value in data set [5] is −0.4%. Besides, in data set [1] (PI3Kγ), the inhibition at 50 µM is at least 95%.
